For orientation: EC50 means the concentration at which the effect is half-maximal. The low end stands for higher potency in that assay, the high end for lower potency in that assay. One may read the half-life as the time needed for the level to fall by half in the phase considered. A low value points to rapid decline.

Data on 13 molecules can be found in article PMC8237258 (Journal of Medicinal Chemistry, 2021).

Where “and” joins values, the source holds several entries; their conditions need not be identical. Identical values can stand only once. Where a SMILES comes first, the peptide text is derived from it. Bridges are numbered along the chain shown (N, C = ends). [ ]: non-standard residue; d: D form.

The conditions of data set [1]: in vivo; cited from earlier work.
In another data set the target is GC-C receptor (Homo sapiens, UniProt P25092). Put plainly: cell-based.
The nature of data set [2]: in vitro. The settings on record: simulated gi fluid, pH 1.3.
The nature of data set [3]: in vitro. The settings on record: pig, simulated gi fluid, pH 6.8.
For data set [4], the target named is guanylate cyclase-C (human (endogenous in T84)) (UniProt P25092).
Sequence of guanylate cyclase-C (human (endogenous in T84)) (P25092 24-1073): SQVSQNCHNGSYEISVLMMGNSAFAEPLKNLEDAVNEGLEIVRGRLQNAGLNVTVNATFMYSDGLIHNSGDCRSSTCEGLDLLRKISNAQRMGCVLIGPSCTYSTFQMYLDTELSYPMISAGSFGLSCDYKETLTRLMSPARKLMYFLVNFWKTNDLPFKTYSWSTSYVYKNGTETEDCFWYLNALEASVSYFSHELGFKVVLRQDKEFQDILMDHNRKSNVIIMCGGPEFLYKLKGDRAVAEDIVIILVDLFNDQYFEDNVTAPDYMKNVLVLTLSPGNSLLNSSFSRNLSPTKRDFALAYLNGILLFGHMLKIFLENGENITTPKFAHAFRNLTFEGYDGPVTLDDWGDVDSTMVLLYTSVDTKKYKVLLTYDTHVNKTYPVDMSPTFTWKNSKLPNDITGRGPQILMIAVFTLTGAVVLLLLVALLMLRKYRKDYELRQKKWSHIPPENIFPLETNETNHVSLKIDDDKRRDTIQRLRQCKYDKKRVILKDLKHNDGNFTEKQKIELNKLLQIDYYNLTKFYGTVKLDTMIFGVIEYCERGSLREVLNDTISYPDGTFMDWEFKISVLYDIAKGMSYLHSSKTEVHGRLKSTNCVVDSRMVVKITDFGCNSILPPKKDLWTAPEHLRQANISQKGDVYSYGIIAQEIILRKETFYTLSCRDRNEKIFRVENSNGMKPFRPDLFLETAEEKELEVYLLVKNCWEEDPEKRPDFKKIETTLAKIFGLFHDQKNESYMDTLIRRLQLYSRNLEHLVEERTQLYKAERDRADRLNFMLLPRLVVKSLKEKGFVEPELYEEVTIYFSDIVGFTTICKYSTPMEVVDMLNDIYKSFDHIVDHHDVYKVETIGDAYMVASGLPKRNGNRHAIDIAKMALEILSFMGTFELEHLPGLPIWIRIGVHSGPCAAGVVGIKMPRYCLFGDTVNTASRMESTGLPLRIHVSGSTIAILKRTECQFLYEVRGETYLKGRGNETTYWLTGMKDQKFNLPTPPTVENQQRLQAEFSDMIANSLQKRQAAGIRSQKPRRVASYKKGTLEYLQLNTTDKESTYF

Sequence of GC-C receptor (P25092 24-1073 limits assumed): as the sequence (P25092 24-1073) above

Consider `C[C@@H]1NC(=O)[C@@H]2CCCN2C(=O)[C@H](CC(N)=O)NC(=O)[C@@H]2CSSC[C@H](N)C(=O)N[C@H]3CSSC[C@H](NC1=O)C(=O)N[C@@H]([C@@H](C)O)C(=O)NCC(=O)N[C@H](C(=O)N[C@@H](Cc1ccc(O)cc1)C(=O)O)CSSC[C@H](NC(=O)[C@H](Cc1ccc(O)cc1)NC(=O)[C@H](CCC(=O)O)NC3=O)C(=O)N2` [Linaclotide, reference compound] (H-CCEYCCNPACTGCY-OH; disulfide 1-6, 2-10, 5-13 (inferred)), for which, in data set [1], the “absorption into the systemic circulation” value is reported as “insignificant” and the “amount excreted in the feces” value is 3–5%. The concentration for a half-maximal effect (EC50) at GC-C receptor turned out to be 3.7 ± 0.5 nM. Besides, in “in vitro [2]”, the half-life was > 8 h. For the same molecule, the half-life in “in vitro [3]” is 0.8 h.

At GC-C receptor, `C[C@@H]1NC(=O)[C@@H]2CCCN2C(=O)[C@H](CC(N)=O)NC(=O)[C@@H]2CSSC[C@H](N)C(=O)N[C@H]3CSSC[C@H](NC1=O)C(=O)N[C@@H]([C@@H](C)O)C(=O)NCC(=O)N[C@H](C(=O)N[C@@H](Cc1ccc(O)cc1)C(N)=O)CSSC[C@H](NC(=O)[C@H](Cc1ccc(O)cc1)NC(=O)[C@H](CCC(=O)O)NC3=O)C(=O)N2` [Linaclotide-NH2] (H-CCEYCCNPACTGCY-NH2; disulfide 1-6, 2-10, 5-13) displayed an EC50 of 7.2 ± 2.1 nM. Moreover, the half-life in the data set “in vitro [2]” and in “in vitro [3]” was > 8 h each time.

On GC-C receptor, `C[C@@H]1NC(=O)[C@@H]2CCCN2C(=O)[C@H](CC(N)=O)NC(=O)[C@@H]2CSSC[C@H](N)C(=O)N[C@H]3CSSC[C@H](NC1=O)C(=O)N[C@@H]([C@@H](C)O)C(=O)NCC(=O)N[C@H](C(=O)N[C@H](Cc1ccc(O)cc1)C(N)=O)CSSC[C@H](NC(=O)[C@H](Cc1ccc(O)cc1)NC(=O)[C@H](CCC(=O)O)NC3=O)C(=O)N2` [[D-Tyr^14]-Linaclotide] (H-CCEYCCNPACTGC[dY]-NH2; disulfide 1-6, 2-10, 5-13) yielded an EC50 of 16.5 ± 5.8 nM and an EC50/EC50 linaclotide fold of 4.5 fold. Also, the half-life in “in vitro [2]” is > 8 h. Also, in “in vitro [3]”, the half-life was > 8 h.

In the case of `CC(C)[C@@H](NC(=O)[C@@H]1CSSC[C@@H]2NC(=O)[C@H](Cc3ccc(O)cc3)NC(=O)[C@H](CCC(=O)O)NC(=O)[C@@H]3CSSC[C@H](NC(=O)[C@H](C)NC(=O)[C@@H]4CCCN4C(=O)[C@H](CC(N)=O)NC(=O)[C@H](CSSC[C@H](N)C(=O)N3)NC2=O)C(=O)N[C@@H]([C@@H](C)O)C(=O)NCC(=O)N1)C(N)=O` [[D-Val^14]-Linaclotide] (H-CCEYCCNPACTGC[dV]-NH2; disulfide 1-6, 2-10, 5-13), at GC-C receptor, the EC50 amounted to 104 ± 21.6 nM, the EC50/EC50 linaclotide fold was determined as 28 fold and the “fold less potent than [D-Tyr^14]-Linaclotide” value came out at 6 fold. For the same molecule, the half-life in the data set “in vitro [2]” was > 8 h. In addition, the half-life in the data set “in vitro [3]” was > 8 h.

Take `C[C@@H]1NC(=O)[C@@H]2CCCN2C(=O)[C@H](CC(N)=O)NC(=O)[C@@H]2CSSC[C@@H]3NC(=O)[C@H](Cc4ccc(O)cc4)NC(=O)[C@@H]4CSSC[C@H](NC(=O)[C@H](Cc5ccc(O)cc5)NC(=O)[C@H](CCC(=O)O)NC(=O)[C@H](CSSC[C@H](NC1=O)C(=O)N[C@@H]([C@@H](C)O)C(=O)NCC(=O)N4)NC3=O)C(=O)N2` [[cyclic]-Linaclotide] (cyclo(ACTGCYCCEYCCNP); disulfide 2-8, 5-11, 7-12): on GC-C receptor, the EC50 was found to be 2990 ± 929 nM; the EC50/EC50 linaclotide fold was 808 fold and ~800 fold. Further, the half-life in the data set “in vitro [2]” was > 8 h. For the same molecule, the half-life in “in vitro [3]” is > 8 h.

The molecule `C[C@@H]1NC(=O)[C@@H]2CCCN2C(=O)[C@H](CC(N)=O)NC(=O)[C@@H]2CSSC[C@H](N)C(=O)N[C@H]3CSSC[C@H](NC1=O)C(=O)N[C@@H]([C@@H](C)O)C(=O)NCC(=O)N[C@H](C(N)=O)CSSC[C@H](NC(=O)[C@H](Cc1ccc(O)cc1)NC(=O)[C@H](CCC(=O)O)NC3=O)C(=O)N2` [[desTyr^14]-Linaclotide-NH2] (H-CCEYCCNPACTGC-NH2; disulfide 1-6, 2-10, 5-13) gave a concentration giving a half-maximal response (EC50) on GC-C receptor of 33.7 ± 5.7 nM. Moreover, the half-life in “in vitro [2]” and in “in vitro [3]” was > 8 h each time.

Turning to Linaclotide (peptide), the EC50 of cGMP accumulation in human T84 cells (cGMP HTRF assay kit) in data set [4] was 3.7 nM.

For the molecule Linaclotide-NH2 (peptide), in data set [4], the EC50 of cGMP accumulation in human T84 cells (cGMP HTRF assay kit) turned out to be 7.2 nM.

In the case of [D-Tyr^14]-Linaclotide (peptide), the EC50 of cGMP accumulation in human T84 cells (cGMP HTRF assay kit) in data set [4] amounted to 16.5 nM.

With [D-Val^14]-Linaclotide (peptide), in data set [4], the EC50 of cGMP accumulation in human T84 cells (cGMP HTRF assay kit) came to 104 nM.

“[Sec^1,6; D-Tyr^14]-Linaclotide (peptide)” displayed an EC50 of cGMP accumulation in human T84 cells (cGMP HTRF assay kit) in data set [4] of 5 nM.

[cyclic]-Linaclotide (peptide) had an EC50 of cGMP accumulation in human T84 cells (cGMP HTRF assay kit) in data set [4] of 2990 nM.

Molecule [desTyr^14]-Linaclotide-NH2 (peptide) came in with an EC50 of cGMP accumulation in human T84 cells (cGMP HTRF assay kit) in data set [4] of 33.7 nM.
